Test results published in PubChem BioAssay (NCI).
Values joined by “and” are separate entries in the source; they are usually repeats but may differ in a detail not shown here. Identical values can stand only once.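 Protocol summary: plate cells (96-well), add compound at 5 concentrations, incubate 48 h, interpolate endpoints linearly. Here, GI50 denotes the concentration required for 50% inhibition of growth. TGI denotes the concentration required for complete inhibition of growth.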

Experiments:
Assay in all cases: growth of human tumour cells (NCI), 48 h
SK-MEL-28 melanoma = tested on: SK-MEL-28 melanoma
MDA-MB-435 = tested on: MDA-MB-435
MCF7 breast = tested on: MCF7 breast
RPMI-8226 leukemia = tested on: RPMI-8226 leukemia
HS 578T breast = tested on: HS 578T breast
BT-549 breast = tested on: BT-549 breast

Row | Compound | GI50 (SK-MEL-28 melanoma) | TGI (SK-MEL-28 melanoma) [µM] | GI50 (MDA-MB-435) | TGI (MDA-MB-435) | GI50 (MCF7 breast) | TGI (MCF7 breast) [µM] | GI50 (RPMI-8226 leukemia) | TGI (RPMI-8226 leukemia) | GI50 (HS 578T breast) | TGI (HS 578T breast) [µM] | GI50 (BT-549 breast) | TGI (BT-549 breast)
1 | CCOC(=O)C#Cc1c(CC(=O)OCC)nnn1[C@H]1O[C@@H](CO)[C@@H]2OC(C)(C)O[C@@H]21 | 3.33 µM | 11.4 | 5.4 µM | 18.3 µM | 3.15 µM | 14.9 | 3.45 µM | 9.06 µM | 25.9 µM | 72.2 | 9.1 µM | 21.2 µM
2 | C/C=C/C=C\C1OC(O)([C@H](CC)C(=O)NC/C=C/C=C(\C)[C@H](OC)C(C)C2OC(\C=C/C=C/C=C(\C)C(=O)c3c(O)ccn(C)c3=O)[C@H](O)[C@@H]2O)C(O)C(O)C1(C)C (stereo partly specified) |  | > 100 |  | > 100 µM |  | > 100 |  | > 100 µM |  | > 100 |  | > 100 µM
3 | C[C@@H]1C[C@@]2(O[C@@H]2C)C(=O)O[C@@H]2CCN3CC=C(COC(=O)[C@]1(C)O)[C@H]23 |  | > 100 |  | > 100 µM |  | > 100 |  | > 100 µM |  | > 100 |  | > 100 µM
4 | Clc1nc(Cl)c(Cc2ccccc2)c(Cl)n1 |  | 26.6 |  | 19 µM |  | 21.4 |  | > 100 µM |  | 19.9 |  | 8.52 µM
5 | N#Cc1nc2cc(F)c(F)cc2nc1-c1ccc(Cl)cc1 | 22 µM | > 100 | 17.5 µM | 39.1 µM | 13.1 µM | > 100 | 6.17 µM | > 100 µM | 1.72 µM | 4.43 | 19.8 µM | 40.3 µM
6 | Cc1ccc(S(=O)(=O)Nc2nc3ccccc3nc2Nc2ccc3nsnc3c2)cc1 | 4.38 µM and 4.11 µM | > 100 | 4.09 µM and 3.15 µM | > 100 µM | 6.55 µM and 4.6 µM | > 100 | 0.85 µM and 2.64 µM | 21.2 µM and > 100 µM | 5.62 µM and 4.21 µM | > 100 | 4.25 µM and 3.42 µM | 26.3 µM and > 29.6 µM
7 | COc1ccc2nc(C)cc(Nc3ccccc3O)c2c1 | 21.3 µM | 57.3 | 18.1 µM | 45.4 µM | 20.5 µM | 51.2 | 17.2 µM | 51.4 µM | 31.9 µM | > 100 | 37.1 µM | > 100 µM
8 | C=C1C(=O)O[C@H]2[C@H]1CC/C(CNS(=O)(=O)c1cccc3ccccc13)=C\CC[C@@]1(C)O[C@@H]21 | 1.97 µM | 4.24 | 1.6 µM | 3.42 µM | 1.36 µM | 3.14 | 1.58 µM | 4.43 µM | 3.46 µM | 18.4 | 1.56 µM | 3.1 µM
9 | CCCN(CCC)C(=O)[C@H](CC)[C@@H]1CC[C@@H](C)[C@@H]([C@H](C)[C@@H](O)[C@@H](C)C(=O)[C@H](CC)C2O[C@]3(C=C[C@@H](O)[C@]4(CC[C@@](C)([C@H]5CC[C@](O)(CC)[C@H](C)O5)O4)O3)[C@H](C)C[C@@H]2C)O1 (stereo partly specified) | 4.5 µM | 17.9 | 2.96 µM | 9.71 µM | 2.46 µM | 7.76 | 1.77 µM | 6.06 µM | 2.75 µM | 9.01 | 3.05 µM | 13.2 µM
10 | COc1ccc(/C=C/C(=O)c2cc3c(N)c(C(=O)Nc4ccccc4)sc3nc2C)cc1 | 2.16 µM | > 45.1 |  |  | 0.128 µM | > 50 | 0.34 µM | > 10.8 µM | 0.153 µM | > 50 | 0.797 µM | > 50 µM
11 | COc1cc(-c2oc3c(OC)c(O)c(OC)c(O)c3c(=O)c2OC)ccc1O |  | > 100 |  | 49.1 µM |  | > 100 |  | > 100 µM |  | 40.1 |  | > 100 µM
12 | O=C1/C(=C/c2ccc(Cl)cc2)COc2ccc(O)c(O)c21 | 1.53 µM | 3.06 | 0.702 µM | 2.63 µM | 0.332 µM | 2.15 | 0.2 µM | 0.512 µM | 1.8 µM | 7.02 | 1.77 µM | 4.04 µM
13 | O=C(NCP(=O)(O)O)c1cccnc1 |  | > 100 |  | > 100 µM |  | > 100 |  | > 100 µM |  |  |  | > 100 µM
14 | Cc1nn(-c2nc3ccccc3[nH]2)c2c1C(c1ccc3c(c1)OCO3)CC(=O)N2 (stereo unspecified) | 3.39 µM | 32.6 | 2.46 µM | 6.3 µM | 2.98 µM | > 30.1 | 2.22 µM | 5.02 µM | 2.93 µM | 13.5 | 3.26 µM | 14.2 µM
15 | Oc1c(N=Nc2ccccc2)c2ccccc2c2ccc3ccccc3c12 |  | > 100 |  | > 100 µM |  | > 100 |  | > 100 µM |  | > 100 |  | > 100 µM
16 | C=CC(=O)Nc1cccc(C)c1Nc1ncc2cc(-c3c(Cl)c(OC)cc(OC)c3Cl)ccc2n1 | 12.7 µM | 55.6 | 4.14 µM | 17.4 µM | 1.97 µM | > 100 | 1.44 µM | 7.54 µM | 13.8 µM | > 100 | 1.64 µM | 9.34 µM

Row | Compound | GI50 (SK-MEL-28 melanoma) | TGI (SK-MEL-28 melanoma) [µM] | GI50 (MDA-MB-435) | TGI (MDA-MB-435) | GI50 (MCF7 breast) | TGI (MCF7 breast) [µM] | GI50 (RPMI-8226 leukemia) | TGI (RPMI-8226 leukemia) | GI50 (HS 578T breast) | TGI (HS 578T breast) [µM] | GI50 (BT-549 breast) | TGI (BT-549 breast)
17 | CC(C)CCc1c(Cl)nc(Cl)nc1Cl |  |  |  | 32.2 µM |  | 40.7 |  | > 100 µM |  | 56.8 |  | 12.3 µM
18 | CC1=C(C(=O)Nc2ccc(F)c(Cl)c2)C(c2cccc(Oc3ccccc3)c2)NC(=O)N1 (stereo unspecified) | 14.7 µM | 28.1 | 18.8 µM | 39.8 µM | 17.6 µM | 43.7 | 8.51 µM | 26.3 µM | 12.2 µM | 32.9 | 15.3 µM | 31.1 µM
19 | OC(CNc1ccnc2cc(Cl)ccc12)CNC1CCCCC1 (stereo unspecified) | 1.76 µM | 3.31 | 1.7 µM | 3.28 µM | 7.36 µM | 21.9 | 10.1 µM | 36.4 µM | 4.95 µM | 23.8 | 3.69 µM | 16.7 µM
20 | CC(=O)c1c[nH]cc1CO |  | > 10 |  |  |  | > 10 |  | > 10 µM |  |  |  | 
21 | CCOC1C=CCCO1 (stereo unspecified) |  | > 100 |  | > 100 µM |  | > 100 |  | > 100 µM |  | > 100 |  | 
22 | OC(CNC1CCCC1)Cn1c2ccccc2c2ccccc21 (stereo unspecified) | > 100 µM | > 100 | > 100 µM | > 100 µM | > 100 µM | > 100 | > 100 µM | > 100 µM | 21.8 µM | 83.7 | 25.1 µM | > 100 µM
23 | N#CC1=C(N)Oc2c(sc3c(F)cccc23)C1c1ccc(F)cc1 (stereo unspecified) | 1.91 µM | 19.7 | 0.212 µM | 0.631 µM | 0.391 µM | 12.4 | 1.05 µM | 14.7 µM | 0.414 µM | 11.4 | 0.604 µM | 14.2 µM
24 | COc1cc([N+](=O)[O-])c(OC)cc1-c1nc2sc(Cl)cn2c1/C=N/NC(=N)N/N=C/c1c(-c2cc(OC)c([N+](=O)[O-])cc2OC)nc2sc(Cl)cn12 | 3.19 µM | > 100 |  |  |  |  |  |  |  |  |  | 
25 | C=C1CC[C@@H]2[C@](C)(COC(C)=O)[C@H](OC(C)=O)CC[C@@]2(C)[C@@H]1C/C=C1/C(=O)OC[C@H]1OC(C)=O | 1.75 µM | 3.38 | 2.63 µM | 10.1 µM | 1.83 µM | 6.79 | 2.06 µM | 7.68 µM | 12.3 µM | 55.3 | 2.29 µM | 5.63 µM
26 | O=C1C(=O)c2ccccc2C(O)=C1CCCCCCCCC1CCCCC1 |  | 35 |  | 17.2 µM |  | 19.4 |  | 56.7 µM |  | 39.6 |  | 27.5 µM
27 | CN(C)c1ccc(O)c2c1C[C@H]1C[C@H]3[C@H](N(C)C)C(=O)C(C(N)=O)=C(O)[C@@]3(O)C(=O)C1=C2O | 7.52 µM | 48.4 | 5.18 µM | 33.2 µM | 10.1 µM | > 100 | 4.28 µM | 31.1 µM | 3.36 µM | 34.2 | 4.14 µM | 20.1 µM
28 | CN1CCn2c(c(Sc3ccc(C(=O)NO)cc3)c3ccccc32)C1=O | 1.94 µM | 4.94 |  |  | 2.8 µM | > 77.1 | 1.24 µM | > 24.5 µM | 2.41 µM | > 29 | 1.92 µM | 4.3 µM
29 | CSC1C(=O)c2ccccc2/C(=N/Nc2nc3ccccc3s2)C1C (stereo unspecified) |  |  | 9.38 µM | 19.8 µM | 5.52 µM | 34.7 | 7.44 µM | > 50 µM | 7.26 µM | 27.9 | 8.52 µM | 19.6 µM
30 | COC(=O)[C@@H](C)C[C@H](Cc1ccccc1)NC(=O)c1csc([C@@H](C[C@H](C(C)C)N(C)C(=O)C2(NC(=O)[C@H]3CCCCN3C)CC2)OC(C)=O)n1 |  |  | 0.000405 µM and < 0.00333 µM | 0.00273 µM and < 0.00333 µM | 0.000612 µM and 0.00333 µM | > 33.3 | 0.000613 µM and 0.00333 µM | 17 µM | 0.0191 µM |  | 0.00549 µM and < 0.00333 µM | < 0.00333 µM
31 | N#C[S-].[Au+].c1ccc(CN2[CH-]N(Cc3ccccc3)C(c3ccccc3)=C2c2ccccc2)cc1 |  |  | 0.492 µM | 1.74 µM |  |  |  |  | 0.744 µM | 4.62 | 0.47 µM | 1.88 µM
